Measured values: patent publication US9260382B2, “Methods of reducing virulence in bacteria” (priority 2010, dated 2016)
Entries after “also recorded” stand apart in the source; their conditions may differ.

Legend:
hrpA promoter (T3SS) [1] = experiment: GFP reporter plasmid phrpA, flow cytometry (FACS) of hrpA promoter activity; type: cell-based, Dickeya dadantii 3937; settings: for mean fluorescence intensity of GFP, hrpA expression: D. dadantii 3937 (phrpA), MM + 100 μM compound
Procedure, shortened: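 D. dadantii (Ech) 3937 carrying the phrpA promoter–GFP transcriptional fusion was grown in T3SS minimal medium with 100 μM compound, starting from an inoculum of OD600 1.0. GFP was read by flow cytometry at 12 and 24 h. Values are mean fluorescence intensity of three replicates ± SD, with compound-free MM as control.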

hrpS promoter = experiment: GFP reporter plasmid phrpS, flow cytometry of hrpS promoter activity; type: cell-based, Dickeya dadantii 3937; settings: reporter plasmid phrpS
Method: FACS analysis of promoter activity of dspE, hrpA, hrpL, hrpN, and hrpS was carried out as described (Peng et al., 2006). Briefly, the wild-type Ech3937 and the mutant strains carrying the promoter reporter plasmid were grown on LB broth at 28° C. overnight and transferred to appropriate media. For FACS analysis, samples were collected by centrifugation, washed with 1× phosphate buffer saline (PBS) at 13,000 rpm for 1 min, and re-suspended in 1×PBS to ca 10^6 CFU/ml prior to being run in a FACS Calibur flow cytometer (BD Biosciences, CA). Three replicates were performed for each treatment.
To test for an inhibitory effect on T3SS hrpS expression, the reporter plasmid phrpS was used to measure the effects of these compounds on hrpA expression.

rsmB RNA = experiment: Northern blot analysis of rsmB RNA; type: cell-based, D. dadanti 3937; settings: bacterial cells cultured in media supplemented with compound (FIG. 23)
From the text: Northern blot analysis was used to quantify rsmB RNA of D. dadanti 3937.

hrpA promoter (T3SS) [2] = experiment: hrpA promoter-probe phrpA in Erwinia amylovora 273, flow cytometry; type: cell-based; settings: Ea273 (phrpA), HIM + 100 μM compound
Procedure, shortened: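 Erwinia amylovora 273 carrying an hrpA promoter–GFP fusion (pPROBE-NT) was grown in hrp-inducing medium with 100 μM compound or DMSO. Promoter activity read as GFP intensity by flow cytometry at 6 h and 9 h.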

COc1ccc(/C=C/C(=O)NO)cc1 [Compound 125, trans-4-Methoxycinnamohydroxamic acid]
mean fluorescence intensity of GFP, hrpA expression (hrpA promoter (T3SS) [1]; 12 h): 17.4 ± 0.9
mean fluorescence intensity of GFP, hrpA expression (hrpA promoter (T3SS) [1]; 24 h): 25.6 ± 2.0
inhibitory activity on T3SS gene (hrpA) expression, in words (hrpA promoter (T3SS) [1]; D. dadantii 3937, reporter plasmid phrpA, 100 μM): showed inhibitory effect; also recorded: potent inhibitory activity
minimal effective concentration (hrpA promoter (T3SS) [1]; Dickeya dadantii, read-out: minimal inhibitory concentration on hrpA expression (concentration showing inhibitory effect)): 100 µM
Mean Fluorescence Intensity of GFP (hrpA, phrpA) (hrpA promoter (T3SS) [1]; Trial 2, MM supplemented with compound at 100 μM): 25.9 ± 1.0
inhibitory effect on T3SS hrpS expression, in words (hrpS promoter): inhibited hrpS
rsmB RNA level, Northern blot, in words (rsmB RNA): reduced rsmB mRNA
Avg MFI ± SD, hrpA expression (hrpA promoter (T3SS) [2]; 6 h): 215.5 ± 6.5
Avg MFI ± SD, hrpA expression (hrpA promoter (T3SS) [2]; 9 h): 230.0 ± 4.4
